Measured values from patent publication US10413541B2, “Oxabicycloheptanes and oxabicycloheptenes for the treatment of depressive and stress disorders” (LIXTE BIOTECHNOLOGY, INC., priority 2015, dated 2019).

Tests used:
[1] = test system: GIRK channels; test: GTPγS-induced Ba2+-sensitive outward current (I-GTPγS) in LHb neurons of brain slices; assay type: cell-based, mice; details: LB100 in the bath; for Ba2+ sensitive I-GTPγS current: GTPγS 100 μM internal
Description: Animals were anesthetized with Ketamine/Xylazine (50 mg/10 mg Kg-1 i.p.; Sigma-Aldrich, France). The preparation of LHb-containing brain slices was done in bubbled ice-cold 95% O2/5% CO2-equilibrated solution containing (in mM): cholineCl 110; glucose 25; NaHCO3 25; MgCl2 7; ascorbic acid 11.6; Na+-pyruvate 3.1; KCl 2.5; NaH2PO4 1.25; CaCl2 0.5. Sagittal slices (250 μm) were stored at room temperature in 95% O2/5% CO2-equilibrated artificial cerebrospinal fluid (ACSF) containing (in mM): NaCl 124; NaHCO3 26.2; glucose 11; KCl 2.5; CaCl2 2.5; MgCl2 1.3; NaH2PO4 1. Recordings (flow rate of 2.5 ml/min) were made under an Olympus-BX51 microscope (Olympus, France) at 32° C. Currents were amplified, filtered at 5 kHz and digitized at 20 kHz. Access resistance was monitored by a step of −4 mV (0.1 Hz). Experiments were discarded if the access resistance increased more than 20%.
Cell-attached recordings in ACSF were performed in GΩ seal with a Vc=0 and Hc=0. Whole-cell voltage clamp recordings were achieved to measure GABAB-GIR currents in presence of Bicuculine (10 μM), NBQX (20 μM) and AP5 (50 μM). […] GABAB-GIRK currents were confirmed by antagonism with either 10 μM of CGP54626, a specific GABAB antagonist or 1 mM Ba^2, a selective inhibitor of inward rectifiers. For the GTPγS experiment, 100 μM of GTPγS was added to the internal solution in place of Na3GTP.

[2] = test system: C57Bl/6J mice; test: Re-exposure to the context test (freezing) after FsE; assay type: in vivo; details: LB100 ip 6-8 h after FsE; one day after FsE
Description: The inescapable shock procedure was previously described in Stamatakis and Stuber 2012. Briefly, we placed mice into standard mouse behavioral chambers (Imetronics) equipped with a metal grid floor. We let them to habituate at the new environment for 5 m. In a 20 m session animals received either 19 or 0 unpredictable foot shocks (1 mA, 500 ms) with an interstimulus interval of 30, 60 or 90 s. We anesthetized mice for patch-clamp electrophysiology 1 h, 24 h, 7 d, 14 d or 30 d after the session ended.
For LB treatment experiments, mice were injected with LB (1.5 mg/Kg i.p.) or saline 6-8 hours after the FsE. The effects of the treatment on the LHb excitability and GABAB-GIRKs currents as well as the behavioural assay were assessed at day 1 or 7. For both electrophysiology and behaviour once treated the animal were housed in groups of 4-6 and let undisturbed until the day of the test.
For this experiment mice were re-exposed 24 h after to the chamber where they received (or not) shocks for a total duration of 5 m. […] The behavior was scored according to a 5-sec instantaneous time-sampling procedure every 25 sec (Fanselow and Bolles 1979). The observer scored the animal as freezing, scanning or active at that instant and then proceeded to the next chamber. […] Thus each animal was scored […], yielding 10 observations for each mouse for total 5 minutes session. […]

CN1CCN(C(=O)C2C(C(=O)O)[C@H]3CC[C@@H]2O3)CC1 (some centres unmarked) [LB100]
Ba2+ sensitive I-GTPγS in FsE animals vs CTRL [1]: restored
Ba2+ sensitive I-GTPγS current ([1]; CTRL mice): 94.27±13.29 pA
Ba2+ sensitive I-GTPγS current ([1]; FsE mice): 110.6±20.79 pA
Ba2+ sensitive I-GTPγS in FsE animals vs CTRL ([1]; listed as LB-100): comparable to the control group
Freezing score in the re-exposure to the context test [2]: did not affect
